Results as given in PubChem BioAssay AID1963980 (Molecular Pharmacology Branch, DTP, NCI, 2024).

system: 475296-252-R-J1-PDC spheroid viability; test: Anticancer human tumor 475296-252-R-J1-PDC patient-derived rectal carcinoma cell line growth inhibition [PI3K]; conditions: second compound 0.00316 µM; first compound 3.16 µM; hits give low values; spheroids with HUVEC and MSC
How it was run: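 We assembled tumor spheroids that included a stromal compartment of HUVEC and MSCs, then exposed them to targeted agents alone and together with PI3K pathway inhibitors. Concentration series descended by half-log from clinically achievable Cmax levels. Viability served as the endpoint.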
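Note: spheroids exposed to agents for seven days before readout.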

| Structure (SMILES) | viability, T/C [%] |
| --- | --- |
| CC(Cn1ccc(-c2ccc(C#N)c(Cl)c2)n1)NC(=O)c1cc(C(C)O)[nH]n1 (configuration not stated) + CC(Nc1ccc2c(c1)OCCn1cc(N3C(=O)OCC3C(F)F)nc1-2)C(N)=O | 106 |
| CC1(C)CCC(Nc2ncc(C(F)(F)F)c(-c3c[nH]c4c(P(C)(C)=O)c(C#N)ccc34)n2)CN1 (configuration not stated) + CC(Nc1ccc2c(c1)OCCn1cc(N3C(=O)OCC3C(F)F)nc1-2)C(N)=O | 174 |

same assay, conditions: second compound 0.00316 µM; first compound 10 µM; hits give low values; spheroids with HUVEC and MSC

| Structure (SMILES) | viability, T/C [%] |
| --- | --- |
| C#Cc1c(F)ccc2cc(O)cc(-c3ncc4c(N5CC6CCC(C5)N6)nc(OCC56CCCN5CC(F)C6)nc4c3F)c12 (configuration not stated) + CC(Nc1ccc2c(c1)OCCn1cc(N3C(=O)OCC3C(F)F)nc1-2)C(N)=O | 67 |
| CC(Cn1ccc(-c2ccc(C#N)c(Cl)c2)n1)NC(=O)c1cc(C(C)O)[nH]n1 (configuration not stated) + CC(Nc1ccc2c(c1)OCCn1cc(N3C(=O)OCC3C(F)F)nc1-2)C(N)=O | 95.2 |
| CC1(C)CCC(Nc2ncc(C(F)(F)F)c(-c3c[nH]c4c(P(C)(C)=O)c(C#N)ccc34)n2)CN1 (configuration not stated) + CC(Nc1ccc2c(c1)OCCn1cc(N3C(=O)OCC3C(F)F)nc1-2)C(N)=O | 73.9 |

same assay, conditions: second compound 0.01 µM; first compound 0.0316 µM; hits give low values; spheroids with HUVEC and MSC

| Structure (SMILES) | viability, T/C [%] |
| --- | --- |
| C#Cc1c(F)ccc2cc(O)cc(-c3ncc4c(N5CC6CCC(C5)N6)nc(OCC56CCCN5CC(F)C6)nc4c3F)c12 (configuration not stated) + CC(Nc1ccc2c(c1)OCCn1cc(N3C(=O)OCC3C(F)F)nc1-2)C(N)=O | 98.6 |
| CC(Cn1ccc(-c2ccc(C#N)c(Cl)c2)n1)NC(=O)c1cc(C(C)O)[nH]n1 (configuration not stated) + CC(Nc1ccc2c(c1)OCCn1cc(N3C(=O)OCC3C(F)F)nc1-2)C(N)=O | 101 |
| CC1(C)CCC(Nc2ncc(C(F)(F)F)c(-c3c[nH]c4c(P(C)(C)=O)c(C#N)ccc34)n2)CN1 (configuration not stated) + CC(Nc1ccc2c(c1)OCCn1cc(N3C(=O)OCC3C(F)F)nc1-2)C(N)=O | 94.5 |

same assay, conditions: second compound 0.01 µM; first compound 0.1 µM; hits give low values; spheroids with HUVEC and MSC

| Structure (SMILES) | viability, T/C [%] |
| --- | --- |
| C#Cc1c(F)ccc2cc(O)cc(-c3ncc4c(N5CC6CCC(C5)N6)nc(OCC56CCCN5CC(F)C6)nc4c3F)c12 (configuration not stated) + CC(Nc1ccc2c(c1)OCCn1cc(N3C(=O)OCC3C(F)F)nc1-2)C(N)=O | 83 |
| CC(Cn1ccc(-c2ccc(C#N)c(Cl)c2)n1)NC(=O)c1cc(C(C)O)[nH]n1 (configuration not stated) + CC(Nc1ccc2c(c1)OCCn1cc(N3C(=O)OCC3C(F)F)nc1-2)C(N)=O | 94 |
| CC1(C)CCC(Nc2ncc(C(F)(F)F)c(-c3c[nH]c4c(P(C)(C)=O)c(C#N)ccc34)n2)CN1 (configuration not stated) + CC(Nc1ccc2c(c1)OCCn1cc(N3C(=O)OCC3C(F)F)nc1-2)C(N)=O | 81.3 |

same assay, conditions: second compound 0.01 µM; first compound 0.316 µM; hits give low values; spheroids with HUVEC and MSC

| Structure (SMILES) | viability, T/C [%] |
| --- | --- |
| C#Cc1c(F)ccc2cc(O)cc(-c3ncc4c(N5CC6CCC(C5)N6)nc(OCC56CCCN5CC(F)C6)nc4c3F)c12 (configuration not stated) + CC(Nc1ccc2c(c1)OCCn1cc(N3C(=O)OCC3C(F)F)nc1-2)C(N)=O | 85.3 |
| CC(Cn1ccc(-c2ccc(C#N)c(Cl)c2)n1)NC(=O)c1cc(C(C)O)[nH]n1 (configuration not stated) + CC(Nc1ccc2c(c1)OCCn1cc(N3C(=O)OCC3C(F)F)nc1-2)C(N)=O | 98.8 |
| CC1(C)CCC(Nc2ncc(C(F)(F)F)c(-c3c[nH]c4c(P(C)(C)=O)c(C#N)ccc34)n2)CN1 (configuration not stated) + CC(Nc1ccc2c(c1)OCCn1cc(N3C(=O)OCC3C(F)F)nc1-2)C(N)=O | 116 |

same assay, conditions: second compound 0.01 µM; first compound 1 µM; hits give low values; spheroids with HUVEC and MSC

| Structure (SMILES) | viability, T/C [%] |
| --- | --- |
| C#Cc1c(F)ccc2cc(O)cc(-c3ncc4c(N5CC6CCC(C5)N6)nc(OCC56CCCN5CC(F)C6)nc4c3F)c12 (configuration not stated) + CC(Nc1ccc2c(c1)OCCn1cc(N3C(=O)OCC3C(F)F)nc1-2)C(N)=O | 73.1 |
| CC(Cn1ccc(-c2ccc(C#N)c(Cl)c2)n1)NC(=O)c1cc(C(C)O)[nH]n1 (configuration not stated) + CC(Nc1ccc2c(c1)OCCn1cc(N3C(=O)OCC3C(F)F)nc1-2)C(N)=O | 88.4 |
| CC1(C)CCC(Nc2ncc(C(F)(F)F)c(-c3c[nH]c4c(P(C)(C)=O)c(C#N)ccc34)n2)CN1 (configuration not stated) + CC(Nc1ccc2c(c1)OCCn1cc(N3C(=O)OCC3C(F)F)nc1-2)C(N)=O | 136 |

same assay, conditions: second compound 0.01 µM; first compound 3.16 µM; hits give low values; spheroids with HUVEC and MSC

| Structure (SMILES) | viability, T/C [%] |
| --- | --- |
| C#Cc1c(F)ccc2cc(O)cc(-c3ncc4c(N5CC6CCC(C5)N6)nc(OCC56CCCN5CC(F)C6)nc4c3F)c12 (configuration not stated) + CC(Nc1ccc2c(c1)OCCn1cc(N3C(=O)OCC3C(F)F)nc1-2)C(N)=O | 75.1 |
| CC(Cn1ccc(-c2ccc(C#N)c(Cl)c2)n1)NC(=O)c1cc(C(C)O)[nH]n1 (configuration not stated) + CC(Nc1ccc2c(c1)OCCn1cc(N3C(=O)OCC3C(F)F)nc1-2)C(N)=O | 98.4 |
| CC1(C)CCC(Nc2ncc(C(F)(F)F)c(-c3c[nH]c4c(P(C)(C)=O)c(C#N)ccc34)n2)CN1 (configuration not stated) + CC(Nc1ccc2c(c1)OCCn1cc(N3C(=O)OCC3C(F)F)nc1-2)C(N)=O | 203 |

same assay, conditions: second compound 0.01 µM; first compound 10 µM; hits give low values; spheroids with HUVEC and MSC

| Structure (SMILES) | viability, T/C [%] |
| --- | --- |
| C#Cc1c(F)ccc2cc(O)cc(-c3ncc4c(N5CC6CCC(C5)N6)nc(OCC56CCCN5CC(F)C6)nc4c3F)c12 (configuration not stated) + CC(Nc1ccc2c(c1)OCCn1cc(N3C(=O)OCC3C(F)F)nc1-2)C(N)=O | 59.1 |
| CC(Cn1ccc(-c2ccc(C#N)c(Cl)c2)n1)NC(=O)c1cc(C(C)O)[nH]n1 (configuration not stated) + CC(Nc1ccc2c(c1)OCCn1cc(N3C(=O)OCC3C(F)F)nc1-2)C(N)=O | 103 |
| CC1(C)CCC(Nc2ncc(C(F)(F)F)c(-c3c[nH]c4c(P(C)(C)=O)c(C#N)ccc34)n2)CN1 (configuration not stated) + CC(Nc1ccc2c(c1)OCCn1cc(N3C(=O)OCC3C(F)F)nc1-2)C(N)=O | 82.8 |

same assay, conditions: second compound 0.0316 µM; first compound 0.0316 µM; hits give low values; spheroids with HUVEC and MSC

| Structure (SMILES) | viability, T/C [%] |
| --- | --- |
| C#Cc1c(F)ccc2cc(O)cc(-c3ncc4c(N5CC6CCC(C5)N6)nc(OCC56CCCN5CC(F)C6)nc4c3F)c12 (configuration not stated) + CC(Nc1ccc2c(c1)OCCn1cc(N3C(=O)OCC3C(F)F)nc1-2)C(N)=O | 94.2 |
| CC(Cn1ccc(-c2ccc(C#N)c(Cl)c2)n1)NC(=O)c1cc(C(C)O)[nH]n1 (configuration not stated) + CC(Nc1ccc2c(c1)OCCn1cc(N3C(=O)OCC3C(F)F)nc1-2)C(N)=O | 87.1 |
| CC1(C)CCC(Nc2ncc(C(F)(F)F)c(-c3c[nH]c4c(P(C)(C)=O)c(C#N)ccc34)n2)CN1 (configuration not stated) + CC(Nc1ccc2c(c1)OCCn1cc(N3C(=O)OCC3C(F)F)nc1-2)C(N)=O | 91.2 |

same assay, conditions: second compound 0.0316 µM; first compound 0.1 µM; hits give low values; spheroids with HUVEC and MSC

| Structure (SMILES) | viability, T/C [%] |
| --- | --- |
| C#Cc1c(F)ccc2cc(O)cc(-c3ncc4c(N5CC6CCC(C5)N6)nc(OCC56CCCN5CC(F)C6)nc4c3F)c12 (configuration not stated) + CC(Nc1ccc2c(c1)OCCn1cc(N3C(=O)OCC3C(F)F)nc1-2)C(N)=O | 87.2 |
| CC(Cn1ccc(-c2ccc(C#N)c(Cl)c2)n1)NC(=O)c1cc(C(C)O)[nH]n1 (configuration not stated) + CC(Nc1ccc2c(c1)OCCn1cc(N3C(=O)OCC3C(F)F)nc1-2)C(N)=O | 102 |
| CC1(C)CCC(Nc2ncc(C(F)(F)F)c(-c3c[nH]c4c(P(C)(C)=O)c(C#N)ccc34)n2)CN1 (configuration not stated) + CC(Nc1ccc2c(c1)OCCn1cc(N3C(=O)OCC3C(F)F)nc1-2)C(N)=O | 99.7 |

same assay, conditions: second compound 0.0316 µM; first compound 0.316 µM; hits give low values; spheroids with HUVEC and MSC

| Structure (SMILES) | viability, T/C [%] |
| --- | --- |
| C#Cc1c(F)ccc2cc(O)cc(-c3ncc4c(N5CC6CCC(C5)N6)nc(OCC56CCCN5CC(F)C6)nc4c3F)c12 (configuration not stated) + CC(Nc1ccc2c(c1)OCCn1cc(N3C(=O)OCC3C(F)F)nc1-2)C(N)=O | 77.6 |
| CC(Cn1ccc(-c2ccc(C#N)c(Cl)c2)n1)NC(=O)c1cc(C(C)O)[nH]n1 (configuration not stated) + CC(Nc1ccc2c(c1)OCCn1cc(N3C(=O)OCC3C(F)F)nc1-2)C(N)=O | 91.3 |
| CC1(C)CCC(Nc2ncc(C(F)(F)F)c(-c3c[nH]c4c(P(C)(C)=O)c(C#N)ccc34)n2)CN1 (configuration not stated) + CC(Nc1ccc2c(c1)OCCn1cc(N3C(=O)OCC3C(F)F)nc1-2)C(N)=O | 96.9 |
